Data reported in ChEMBL document CHEMBL4373639, “How mithramycin stereochemistry dictates its structure and DNA binding function” (Medchemcomm, 2019).

Assay: Binding affinity to dsDNA oligomer GAGGCCTC (unknown origin) assessed as binding constant incubated for 16 hrs in presence of […] by fluorescence based assay

Row | Compound | Kd
1 | COC(=O)[C@H](Cc1ccccc1)NC(=O)[C@@H](OC)[C@@H]1Cc2cc3cc(O[C@H]4C[C@@H](O[C@H]5C[C@@H](O)[C@H](O)[C@@H](C)O5)[C@H](O)[C@@H](C)O4)c(C)c(O)c3c(O)c2C(=O)[C@H]1O[C@H]1C[C@@H](O[C@H]2C[C@@H](O[C@H]3C[C@](C)(O)[C@H](O)[C@@H](C)O3)[C@H](O)[C@@H](C)O2)[C@H](O)[C@@H](C)O1 | 1.6 µM
2 | CO[C@H](C(=O)[C@@H](O)[C@@H](C)O)[C@@H]1Cc2cc3cc(O[C@H]4C[C@@H](O[C@H]5C[C@@H](O)[C@H](O)[C@@H](C)O5)[C@H](O)[C@@H](C)O4)c(C)c(O)c3c(O)c2C(=O)[C@H]1O[C@H]1C[C@@H](O[C@H]2C[C@@H](O[C@H]3C[C@](C)(O)[C@H](O)[C@@H](C)O3)[C@H](O)[C@@H](C)O2)[C@H](O)[C@@H](C)O1 | < 1 µM
